{"source": "patent US20080318958A1", "about": "“New utilities of tricyclic compounds” (priority 2001, published 2008)", "data": [{"tested_on": "not given", "assay": "not given", "settings": "not given", "units": {"melting point": "°C"}, "values": [{"smiles": "c1ccc(-c2ccnc(-c3ccccc3)n2)cc1", "note": "[Compound I-4]", "melting point": "66 to 69"}, {"smiles": "c1ccc(-c2cc(-c3ccccc3)ncn2)cc1", "note": "[Compound I-5]", "melting point": "91 to 92"}, {"smiles": "c1ccc(-c2cncc(-c3ccccc3)n2)cc1", "note": "[Compound I-6]", "melting point": "88.5 to 90"}, {"smiles": "c1ccc(-c2ccc(-c3ccccc3)nn2)cc1", "note": "[Compound I-7]", "melting point": "218 to 220"}, {"smiles": "c1ccc(-c2ccc(-c3ncccn3)cc2)cc1", "note": "[Compound I-8]", "melting point": "112 to 113"}, {"smiles": "c1ccc(-c2cccc(-c3ncccn3)c2)cc1", "note": "[Compound I-9]", "melting point": "46 to 48"}, {"smiles": "c1ccc(-c2ccc(-c3cnccn3)cc2)cc1", "note": "[Compound I-10]", "melting point": "177 to 178"}, {"smiles": "c1ccc(-c2ccc(-c3ccccc3)nc2)cc1", "note": "[Compound I-11]", "melting point": "176 to 177"}, {"smiles": "c1ccc(-c2nnc(-c3ccccc3)c3ccccc23)cc1", "note": "[Compound I-12]", "melting point": "203 to 205"}, {"smiles": "COc1ccc(-c2nnc(-c3ccccc3)c3ccccc23)cc1", "note": "[Compound I-13]", "melting point": "175 to 177"}]}, {"tested_on": "promoter region of the gene encoding human apoAI", "assay": "Activity to enhance the expression of human apoAI: apoAI promoter-firefly luciferase reporter in stably transfected HepG2 cells", "assay_type": "cell-based", "settings": "concentration that intensified the luciferase activity twice compared to DMSO control, 24 hours incubation with compound, read-out: MED (minimal effective dose)", "experimental": "The promoter region of the gene encoding human apoAI was isolated, and ligated upstream the structure gene of firefly luciferase to construct a reporter plasmid. The reporter plasmid and a marker plasmid conferring the neomycin resistance were co-infected to cell lines derived from human hepatoma, HepG2 cells, and the cell lines were incubated in a selection medium comprising DMEM medium containing 10% fetal calf serum supplemented with G418 (Final concentration: 0.7 mg/mL, Gibco) to give established strains that stably expressed the reporter molecule. The strains were seeded to a 96-well culture plates at a density of 50,000 cells per well, and incubated for 48 hours at 37° C. under an atmosphere of 5% carbon dioxide. Then, a solution of the compounds according to the invention in DMSO was added to the wells at final concentrations of 0 to 10 μg/mL. After further incubation for 24 hours, the cells were added with a luciferase assay reagent (Piccagene LT 7.5 registered trade mark, Toyo Ink, KK), and the luciferase activity was determined using a luminometer (MicroBeta™ TRILUX, 1 sec/well, Wallac). The concentration of the compounds, which intensified the luciferase activity twice compared to that of control (DMSO without any compound of the invention added) was set as the minimal effective dose (MED).", "units": {"EC (2-fold luciferase activity)": "µM"}, "values": [{"smiles": "c1ccc(-c2ccc(-c3ccncn3)cc2)cc1", "note": "[Compound I-1]", "EC (2-fold luciferase activity)": 0.63}, {"smiles": "c1ccc(-c2cnc(-c3ccccc3)nc2)cc1", "note": "[Compound I-2]", "EC (2-fold luciferase activity)": 0.2}, {"smiles": "c1ccc(-c2cncc(-c3ccccc3)n2)cc1", "note": "[Compound I-6]", "EC (2-fold luciferase activity)": 3.11}, {"smiles": "c1ccc(-c2ccc(-c3ccccc3)nn2)cc1", "note": "[Compound I-7]", "EC (2-fold luciferase activity)": 0.04}, {"smiles": "c1ccc(-c2ccc(-c3ncccn3)cc2)cc1", "note": "[Compound I-8]", "EC (2-fold luciferase activity)": 0.09}, {"smiles": "c1ccc(-c2ccc(-c3cnccn3)cc2)cc1", "note": "[Compound I-10]", "EC (2-fold luciferase activity)": 0.71}, {"smiles": "c1ccc(-c2ccc(-c3ccccc3)nc2)cc1", "note": "[Compound I-11]", "EC (2-fold luciferase activity)": 0.21}, {"smiles": "c1ccc(-c2ccc(-c3cnc4ccccc4n3)cc2)cc1", "note": "[Compound I-16]", "EC (2-fold luciferase activity)": 0.1}, {"smiles": "c1ccc(-c2ccc(-c3ccc4ccccc4n3)cc2)cc1", "note": "[Compound I-17]", "EC (2-fold luciferase activity)": 0.33}, {"smiles": "Cc1cc(-c2ccc(-c3ccccc3)cc2)nc2ccccc12", "note": "[Compound I-18]", "EC (2-fold luciferase activity)": 1.1}, {"smiles": "c1ccc(-c2ccc(-c3ccccn3)cc2)cc1", "note": "[Compound I-20]", "EC (2-fold luciferase activity)": 0.23}, {"smiles": "Cc1cccc(-c2ccc(-c3ccccc3)cc2)n1", "note": "[Compound I-21]", "EC (2-fold luciferase activity)": 2.3}, {"smiles": "COc1cccc(-c2ccc(-c3ccccc3)cc2)n1", "note": "[Compound I-22]", "EC (2-fold luciferase activity)": 0.84}, {"smiles": "CCc1cnc(-c2ccc(-c3ccccc3)cc2)nc1", "note": "[Compound I-23]", "EC (2-fold luciferase activity)": 0.27}, {"smiles": "COc1cc(OC)nc(-c2ccc(-c3ccccc3)cc2)n1", "note": "[Compound I-24]", "EC (2-fold luciferase activity)": 2.2}, {"smiles": "c1ccc(-c2ccc(-c3cccnn3)cc2)cc1", "note": "[Compound I-25]", "EC (2-fold luciferase activity)": 0.29}, {"smiles": "Clc1ccc(-c2ccc(-c3ccccc3)cc2)nn1", "note": "[Compound I-26]", "EC (2-fold luciferase activity)": 0.27}, {"smiles": "COc1ccc(-c2ccc(-c3ccccc3)cc2)nn1", "note": "[Compound I-27, 3-(4-Biphenyl)-6-methoxypyridazin]", "EC (2-fold luciferase activity)": 0.06}, {"smiles": "c1ccc(-c2ccc(-c3ccc(-c4ccccc4)nn3)cc2)cc1", "note": "[Compound I-28]", "EC (2-fold luciferase activity)": 2.5}, {"smiles": "COc1nc(OC)nc(-c2ccc(-c3ccccc3)cc2)n1", "note": "[Compound I-29]", "EC (2-fold luciferase activity)": 2.5}, {"smiles": "COc1cccc(-c2cnc(-c3cccc(OC)c3)cn2)c1", "note": "[Compound I-35]", "EC (2-fold luciferase activity)": 0.29}, {"smiles": "c1ccc(-c2ccc(-c3ccsc3)cc2)nc1", "note": "[Compound I-36, 2-[4-(3-Thienyl)phenyl]pyridine]", "EC (2-fold luciferase activity)": 1.3}, {"smiles": "c1ccc(-c2ccc(-c3ccoc3)cc2)nc1", "note": "[Compound I-37]", "EC (2-fold luciferase activity)": 4.4}, {"smiles": "COc1ccc(-c2ccc(-c3ccccn3)cc2)cc1", "note": "[Compound I-40]", "EC (2-fold luciferase activity)": 0.16}, {"smiles": "Cc1ccc(-c2ccc(-c3ccccn3)cc2)cc1", "note": "[Compound I-42]", "EC (2-fold luciferase activity)": 0.09}, {"smiles": "CC(=O)Nc1ccc(-c2ccc(-c3ccccn3)cc2)cc1", "note": "[Compound I-43]", "EC (2-fold luciferase activity)": 0.3}, {"smiles": "C#CC1COc2ccc(-c3c(OC)cc(-c4ccc(O)cc4)c(OC)c3O)cc2O1", "note": "(stereo not drawn) [Compound I-44]", "EC (2-fold luciferase activity)": 0.6}, {"smiles": "COc1cc(-c2ccc(O)cc2)c(OC)c(O)c1-c1ccc2c(c1)OC(O)CO2", "note": "(stereo not drawn) [Compound I-45]", "EC (2-fold luciferase activity)": 2.4}, {"smiles": "COc1cc(-c2ccc(O)cc2)c(OC)c(O)c1-c1ccc(OC/C=N/C2CCN(C)CC2)c(O)c1", "note": "[Compound I-48]", "EC (2-fold luciferase activity)": 1.6}]}]}
